Data as given in patent publication US20250312352A1, “GLP-1R MODULATING COMPOUNDS” (Gilead Sciences, Inc., priority 2021, published 2025).

Target: T1, GLP-1R (Homo sapiens, UniProt P43220)
T1 construct: host or cells: CHO cells
Experiment: GLP-1R activation cAMP assay (Assay 1 or Assay 2)
Format: cell-based
Details: cAMP increase in CHO cells stably expressing GLP-1R; compounds run on one of the two cAMP assays
In short: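 EC50 values come from a sigmoidal fit of HTRF-detected cAMP rise versus log agonist concentration. GLP-1R-expressing CHO cells, equilibrated 1 h at 37 °C in HBSS with HEPES and BSA, received a 10-point compound dose series for 30 min before detection.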

T1 sequence (P43220 24-463): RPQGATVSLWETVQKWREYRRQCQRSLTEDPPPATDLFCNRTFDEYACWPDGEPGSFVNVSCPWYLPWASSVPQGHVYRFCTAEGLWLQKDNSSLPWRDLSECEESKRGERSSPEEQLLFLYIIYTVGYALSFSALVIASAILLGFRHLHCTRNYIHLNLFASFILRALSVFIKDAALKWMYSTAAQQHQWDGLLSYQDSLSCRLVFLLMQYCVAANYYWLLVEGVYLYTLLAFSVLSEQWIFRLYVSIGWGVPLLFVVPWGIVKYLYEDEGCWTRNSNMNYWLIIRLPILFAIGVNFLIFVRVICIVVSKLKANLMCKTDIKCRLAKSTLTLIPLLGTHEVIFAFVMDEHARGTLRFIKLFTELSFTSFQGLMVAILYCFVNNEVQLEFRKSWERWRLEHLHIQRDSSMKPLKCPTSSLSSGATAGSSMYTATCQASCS

Compound	EC50
N#Cc1ccc(COc2cccc(-c3cc(F)c(Cc4nc5ccc(C(=O)O)cc5n4C[C@@H]4CCO4)cc3F)n2)o1 [Example 14, (S)-2-(4-(6-((5-cyanofuran-2-yl)methoxy)pyridin-2-yl)-2,5-difluorobenzyl)-1-(oxetan-2-ylmethyl)-1H-benzo[d]imidazole-6-carboxylic acid]	5.68 nM
Cn1cc(-c2nnc(COc3cccc(-c4cc(F)c(Cc5nc6ccc(C(=O)O)cc6n5C[C@@H]5CCO5)cc4F)n3)s2)cn1 [Example 91, (S)-2-(2,5-difluoro-4-(6-((5-(1-methyl-1H-pyrazol-4-yl)-1,3,4-thiadiazol-2-yl)methoxy)pyridin-2-yl)benzyl)-1-(oxetan-2-ylmethyl)-1H-benzo[d]imidazole-6-carboxylic acid]	0.12 nM
N#Cc1cc(F)c(COc2cccc(-c3cc(F)c(Cc4nc5ccc(C(=O)O)cc5n4C[C@@H]4CCO4)cc3F)n2)s1 [Example 52, (S)-2-(4-(6-((5-cyano-3-fluorothiophen-2-yl)methoxy)pyridin-2-yl)-2,5-difluorobenzyl)-1-(oxetan-2-ylmethyl)-1H-benzo[d]imidazole-6-carboxylic acid]	0.13 nM
COc1nnc(COc2nc(-c3cc(F)c(Cc4nc5ccc(C(=O)O)cc5n4[C@@H]4COCC4(C)C)c(F)c3F)ccc2F)s1 [Example 270, (S)-1-(4,4-dimethyltetrahydrofuran-3-yl)-2-(2,3,6-trifluoro-4-(5-fluoro-6-((5-methoxy-1,3,4-thiadiazol-2-yl)methoxy)pyridin-2-yl)benzyl)-1H-benzo[d]imidazole-6-carboxylic acid]	0.191 nM
NC(=O)c1ccc(COc2nccc(-c3cc(F)c(Cc4nc5ccc(C(=O)O)cc5n4C[C@@H]4CCO4)cc3F)n2)c(F)c1 [Example 203, (S)-2-(4-(2-((4-carbamoyl-2-fluorobenzyl)oxy)pyrimidin-4-yl)-2,5-difluorobenzyl)-1-(oxetan-2-ylmethyl)-1H-benzo[d]imidazole-6-carboxylic acid]	1.1 nM
C[C@H]1COC[C@H]1n1c(Cc2cc(F)c(-c3ccc(F)c(OCc4ncc(C(F)(F)F)s4)n3)cc2F)nc2ccc(C(=O)O)cc21 [Example 409, 2-(2,5-difluoro-4-(5-fluoro-6-((5-(trifluoromethyl)thiazol-2-yl)methoxy)pyridin-2-yl)benzyl)-1-((3S,4R)-4-methyltetrahydrofuran-3-yl)-1H-benzo[d]imidazole-6-carboxylic acid]	0.695 nM
COc1nnc(COc2cccc(-c3cc(F)c(Cc4nc5ccc(C(=O)O)cc5n4C[C@@H]4CCO4)cc3F)n2)s1 [Example 1, 2-[[2,5-difluoro-4-[6-[(5-methoxy-1,3,4-thiadiazol-2-yl)methoxy]-2-pyridyl]phenyl]methyl]-3-[[(2S)-oxetan-2-yl]methyl]benzimidazole-5-carboxylic acid]	0.27 nM
COc1cc(C#Cc2cnn(C)c2)ccc1COc1cccc(-c2cc(F)c(Cc3nc4ccc(C(=O)O)cc4n3C[C@@H]3CCO3)cc2F)n1 [Example 304, (S)-2-(2,5-difluoro-4-(6-((2-methoxy-4-((1-methyl-1H-pyrazol-4-yl)ethynyl)benzyl)oxy)pyridin-2-yl)benzyl)-1-(oxetan-2-ylmethyl)-1H-benzo[d]imidazole-6-carboxylic acid]	0.524 nM
2-(4-(6-((5-chlorothiazol-2-yl)methoxy)pyridin-2-yl)-2,5-difluorobenzyl)-1-((1-(fluoromethyl)cyclopropyl)methyl)-1H-benzo[d]imidazole-6-carboxylic acid [Example 269]	0.748 nM
O=C(O)c1cc(F)c2nc(Cc3c(F)cc(-c4ccnc(OCc5nc(C(F)(F)F)cs5)n4)c(F)c3F)n(C[C@@H]3CCO3)c2c1 [Example 377, (S)-4-fluoro-1-(oxetan-2-ylmethyl)-2-(2,3,6-trifluoro-4-(2-((4-(trifluoromethyl)thiazol-2-yl)methoxy)pyrimidin-4-yl)benzyl)-1H-benzo[d]imidazole-6-carboxylic acid]	0.481 nM
COc1nnc(COc2cccc(-c3cc(F)c(Cc4nc5ccc(C(=O)O)cc5n4C4COCC4(C)C)c(F)c3F)n2)s1 (stereo not drawn) [Example 282, 1-(4,4-dimethyltetrahydrofuran-3-yl)-2-(2,3,6-trifluoro-4-(6-((5-methoxy-1,3,4-thiadiazol-2-yl)methoxy)pyridin-2-yl)benzyl)-1H-benzo[d]imidazole-6-carboxylic acid]	0.311 nM
N#CCCNC(=O)c1ccc(COc2cccc(-c3cc(F)c(Cc4nc5ccc(C(=O)O)cc5n4C[C@@H]4CCO4)cc3F)n2)cn1 [Example 375, (S)-2-(4-(6-((6-((2-cyanoethyl)carbamoyl)pyridin-3-yl)methoxy)pyridin-2-yl)-2,5-difluorobenzyl)-1-(oxetan-2-ylmethyl)-1H-benzo[d]imidazole-6-carboxylic acid]	0.372 nM
Cn1ccnc1C#Cc1ccc(COc2cccc(-c3cc(F)c(Cc4nc5ccc(C(=O)O)cc5n4C[C@@H]4CCO4)cc3F)n2)c(F)c1 [Example 148, (S)-2-(2,5-difluoro-4-(6-((2-fluoro-4-((1-methyl-1H-imidazol-2-yl)ethynyl)benzyl)oxy)pyridin-2-yl)benzyl)-1-(oxetan-2-ylmethyl)-1H-benzo[d]imidazole-6-carboxylic acid]	0.51 nM
CC(F)(F)c1cnc(COc2nc(-c3cc(F)c(Cc4nc5c(F)cc(C(=O)O)cc5n4C[C@@H]4CCO4)c(F)c3F)ccc2F)s1 [Example 378, (S)-2-(4-(6-((5-(1,1-difluoroethyl)thiazol-2-yl)methoxy)-5-fluoropyridin-2-yl)-2,3,6-trifluorobenzyl)-4-fluoro-1-(oxetan-2-ylmethyl)-1H-benzo[d]imidazole-6-carboxylic acid]	0.068 nM
O=C(O)c1ccc2nc(Cc3cc(F)c(-c4cccc(OCc5cnc(C(=O)NC6CC6)cc5F)n4)cc3F)n(C[C@@H]3CCO3)c2c1 [Example 245, (S)-2-(4-(6-((6-(cyclopropylcarbamoyl)-4-fluoropyridin-3-yl)methoxy)pyridin-2-yl)-2,5-difluorobenzyl)-1-(oxetan-2-ylmethyl)-1H-benzo[d]imidazole-6-carboxylic acid]	0.1 nM
Cn1nncc1C#Cc1ccc(COc2cccc(-c3cc(F)c(Cc4nc5ccc(C(=O)O)cc5n4C4COCC4(C)C)cc3F)n2)c(F)c1 (stereo not drawn) [Example 279, 2-(2,5-difluoro-4-(6-((2-fluoro-4-((1-methyl-1H-1,2,3-triazol-5-yl)ethynyl)benzyl)oxy)pyridin-2-yl)benzyl)-1-(4,4-dimethyltetrahydrofuran-3-yl)-1H-benzo[d]imidazole-6-carboxylic acid]	0.955 nM
CC(C)(C#N)C#Cc1cnc(COc2cccc(-c3cc(F)c(Cc4nc5ccc(C(=O)O)cc5n4C[C@@H]4CCO4)cc3F)n2)s1 [Example 328, (S)-2-(4-(6-((5-(3-cyano-3-methylbut-1-yn-1-yl)thiazol-2-yl)methoxy)pyridin-2-yl)-2,5-difluorobenzyl)-1-(oxetan-2-ylmethyl)-1H-benzo[d]imidazole-6-carboxylic acid]	0.342 nM
O=C(O)c1ccc2nc(Cc3cc(F)c(-c4cccc(OCc5ccc(-c6cn(C78CC(C7)C8)nn6)cc5F)n4)cc3F)n(C[C@@H]3CCO3)c2c1 [Example 216, (S)-2-(4-(6-((4-(1-(bicyclo[1.1.1]pentan-1-yl)-1H-1,2,3-triazol-4-yl)-2-fluorobenzyl)oxy)pyridin-2-yl)-2,5-difluorobenzyl)-1-(oxetan-2-ylmethyl)-1H-benzo[d]imidazole-6-carboxylic acid]	0.72 nM
O=C(O)c1cc(F)c2nc(Cc3cc(F)c(-c4cccc(OCc5ncc(-c6cnn(C(F)F)c6)s5)n4)cc3F)n(C[C@@H]3CCO3)c2c1 [Example 85, (S)-2-(4-(6-((5-(1-(difluoromethyl)-1H-pyrazol-4-yl)thiazol-2-yl)methoxy)pyridin-2-yl)-2,5-difluorobenzyl)-4-fluoro-1-(oxetan-2-ylmethyl)-1H-benzo[d]imidazole-6-carboxylic acid]	0.05 nM
Cc1cc(Cc2nc3c(F)cc(C(=O)O)cc3n2[C@@H]2COCC2(C)C)c(Cl)cc1-c1ccc(F)c(OCc2ncc(C(C)(F)F)s2)n1 [Example 426, (S)-2-(2-chloro-4-(6-((5-(1,1-difluoroethyl)thiazol-2-yl)methoxy)-5-fluoropyridin-2-yl)-5-methylbenzyl)-1-(4,4-dimethyltetrahydrofuran-3-yl)-4-fluoro-1H-benzo[d]imidazole-6-carboxylic acid]	0.931 nM
CC(C)(C)C#Cc1cnc(COc2cccc(-c3cc(F)c(Cc4nc5ccc(C(=O)O)cc5n4C[C@@H]4CCO4)cc3F)n2)s1 [Example 320, (S)-2-(4-(6-((5-(3,3-dimethylbut-1-yn-1-yl)thiazol-2-yl)methoxy)pyridin-2-yl)-2,5-difluorobenzyl)-1-(oxetan-2-ylmethyl)-1H-benzo[d]imidazole-6-carboxylic acid]	0.537 nM
CC(F)(F)c1cnc(COc2nc(-c3cc(F)c(Cc4nc5c(F)cc(C(=O)O)cc5n4C[C@@H]4CCO4)cc3F)ccc2F)s1 [Example 309, (S)-2-(4-(6-((5-(1,1-difluoroethyl)thiazol-2-yl)methoxy)-5-fluoropyridin-2-yl)-2,5-difluorobenzyl)-4-fluoro-1-(oxetan-2-ylmethyl)-1H-benzo[d]imidazole-6-carboxylic acid]	0.084 nM
CCOc1nnc(COc2cccc(-c3cc(F)c(Cc4nc5ccc(C(=O)O)cc5n4[C@@H]4COCC4(C)C)cc3C)c2)s1 [Example 259, (S)-1-(4,4-dimethyltetrahydrofuran-3-yl)-2-((3′-((5-ethoxy-1,3,4-thiadiazol-2-yl)methoxy)-5-fluoro-2-methyl-[1,1′-biphenyl]-4-yl)methyl)-1H-benzo[d]imidazole-6-carboxylic acid]	0.577 nM
O=C(O)c1ccc2nc(Cc3cc(F)c(-c4cccc(OCc5cnc(-c6cnn(C7COC7)c6)cc5F)n4)cc3F)n(C[C@@H]3CCO3)c2c1 [Example 162, (S)-2-(2,5-difluoro-4-(6-((4-fluoro-6-(1-(oxetan-3-yl)-1H-pyrazol-4-yl)pyridin-3-yl)methoxy)pyridin-2-yl)benzyl)-1-(oxetan-2-ylmethyl)-1H-benzo[d]imidazole-6-carboxylic acid]	0.16 nM
